# Data published in US20150306081A1, “Chemotherapy for Drug-Resistant Cancer Cells” (THE UNIVERSITY OF SYDNEY, priority 2012, published 2015).
# Columns and labels:
# [1] = system: Pgp over-expressing KBV1 cells; assay: Efflux of 14C-Dp44mT, KBV1 cells; assay type: cell-based, Human
# Description: For the uptake assay, each 35 mm culture dish containing 5×10^5 cells was incubated with ^14C-doxorubicin, ^3H-vinblastine or ^14C-Dp44mT (all at 1 μCi) for 30 min/37° C. Cells were then washed on ice three times with ice-cold PBS and collected for analysis. Drug uptake was calculated as the number of drug molecules/cell. […] For studies using lysosomotropic agents, cells were pre-incubated with NH4Cl (5 mM), CLQ (100 μM) or MA (100 μM) for 30 min/37° C. prior to ^14C-Dp44mT uptake. […] For efflux assays, the same labeling procedure was conducted as in the uptake assay. […] After this procedure, the overlying media was removed using a Pasteur pipette and then placed in a counting vial. The cells were removed from the plate in 1 mL of PBS and then dispensed into a separate counting vial. The radiolabeled-drug efflux was calculated as a percentage of the total drug uptake by the cells found at zero time.
# Pgp [2] = target: T1, Pgp (Homo sapiens, UniProt P08183); assay: Pgp-ATPase activity assay (Pgp-Glo); conditions: 40 min
# T1 sequence (P08183 whole entry): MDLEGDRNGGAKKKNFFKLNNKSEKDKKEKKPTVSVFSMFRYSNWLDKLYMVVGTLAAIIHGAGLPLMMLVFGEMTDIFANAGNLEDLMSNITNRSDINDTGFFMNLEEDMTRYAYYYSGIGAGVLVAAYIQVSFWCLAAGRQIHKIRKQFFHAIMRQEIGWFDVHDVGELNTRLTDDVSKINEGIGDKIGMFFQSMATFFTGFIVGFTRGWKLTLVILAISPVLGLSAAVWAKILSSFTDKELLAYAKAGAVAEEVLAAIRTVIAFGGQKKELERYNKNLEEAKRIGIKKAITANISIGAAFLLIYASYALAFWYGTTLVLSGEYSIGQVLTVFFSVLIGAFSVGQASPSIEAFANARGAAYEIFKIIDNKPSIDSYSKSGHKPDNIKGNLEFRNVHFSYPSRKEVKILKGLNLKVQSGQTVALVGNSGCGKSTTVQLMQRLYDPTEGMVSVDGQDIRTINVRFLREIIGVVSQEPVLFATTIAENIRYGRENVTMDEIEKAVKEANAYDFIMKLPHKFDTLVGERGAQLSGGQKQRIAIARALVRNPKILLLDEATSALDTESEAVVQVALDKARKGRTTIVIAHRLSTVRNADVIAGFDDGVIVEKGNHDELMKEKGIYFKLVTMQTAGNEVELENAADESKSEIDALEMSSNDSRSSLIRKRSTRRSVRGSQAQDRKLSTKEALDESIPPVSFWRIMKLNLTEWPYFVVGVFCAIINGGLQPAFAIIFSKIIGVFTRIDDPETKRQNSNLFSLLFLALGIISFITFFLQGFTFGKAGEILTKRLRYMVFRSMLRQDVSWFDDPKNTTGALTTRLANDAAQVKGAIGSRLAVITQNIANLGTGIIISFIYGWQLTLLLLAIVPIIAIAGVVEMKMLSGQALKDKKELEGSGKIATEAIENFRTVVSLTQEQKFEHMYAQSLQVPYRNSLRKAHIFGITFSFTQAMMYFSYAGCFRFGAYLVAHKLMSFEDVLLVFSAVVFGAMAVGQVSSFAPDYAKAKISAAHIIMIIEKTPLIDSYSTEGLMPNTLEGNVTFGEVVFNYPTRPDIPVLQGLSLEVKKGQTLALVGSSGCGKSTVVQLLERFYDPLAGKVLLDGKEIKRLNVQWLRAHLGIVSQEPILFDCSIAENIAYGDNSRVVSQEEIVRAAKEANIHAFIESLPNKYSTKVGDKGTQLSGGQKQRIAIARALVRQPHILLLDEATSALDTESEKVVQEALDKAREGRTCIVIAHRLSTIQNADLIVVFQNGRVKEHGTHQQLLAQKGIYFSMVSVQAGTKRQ
# Description: The ATPase activities of Pgp were determined using Pgp-enriched membranes and a luminescent ATP detection kit (Pgp-Glo Assay Kit, Promega, USA) according to the manufacturer's instructions. Briefly, Pgp membranes (0.5 mg/mL) and Mg(II)-ATP (5 mM) were incubated in the absence or presence of sodium orthovanadate (100 μM) for 40 min/37° C. and ATP detected as a luciferase-generated luminescent signal. Basal Pgp-ATPase activities were determined as the difference between the ATP hydrolysis in the presence or absence of sodium orthovanadate. Verapamil-stimulated Pgp-ATPase activity was measured in the presence of the Pgp control substrate, verapamil (200 μM).
# Test substrates (Dp44mT and Bp4eT) of interest were dissolved in dimethyl sulfoxide. The final concentration of DMSO in the assay medium was less than 1%.
# The Pgp Glo™ ATPase assay (Promega, Madison, Wis.) was used to assess if Dp44mT and Bp4eT are substrates of Pgp. The ATPase assay measures the Pgp-mediated ATPase activity of Pgp by quantitating ATP consumption in the presence of the compounds of interest after incubation with purified membrane proteins containing high levels of Pgp. […] The basal ATPase activity of Pgp is compared to the ATPase activity stimulated or inhibited by the compounds of interest.
# KBV1 cells = assay: Lysosomal integrity, acridine orange flow cytometry, KBV1 cells; assay type: cell-based, Human
# Description: Lysotracker® red (Life Technologies) and acridine orange (Sigma-Aldrich) are dyes showing high specificity for lysosomes and were used to determine lysosomal membrane permeability (LMP). The Lysotracker® red was visually assessed by fluorescence microscopy utilizing a Zeiss Axio Observer.Z1 Fluorescence Microscope equipped with an AxioCam camera (Zeiss, Oberkochen, Germany) and acridine orange was quantified by flow cytometry (see below).
# Briefly, cells were incubated with Lysotracker® red (50 nM) for 15 min/37° C. or acridine orange (20 nM) for 15 min/37° C., washed on ice 3 times with ice-cold PBS and then incubated with Cu[Dp44mT] (25 μM) for 30 min/37° C. or Dp44mT alone (25 μM) for 30 min or 24 h/37° C.
# (§1) The dyes, Rh123 and acridine orange were detected with the FACS Canto flow cytometer (BD Biosciences) and 10,000 events were acquired for every sample. Data analysis was performed using FlowJo software, version 7.5.5 (Tree Star Inc., Ashland, OR).
# Pgp [3] = target: T1, Pgp; assay: Rhodamine 123 accumulation assay, KBV1 cells; assay type: cell-based; conditions: 0.1 μM or above
# Description: Cells were then harvested and resuspended in ice-cold PBS and kept on ice until flow cytometric analysis (see below).
# as §1
# [4] = system: Pgp-expressing KBV1 cells; assay: MTT proliferation assay, KBV1 cells; assay type: cell-based, Human; conditions: 72 h
smiles,measurement,setting,value
"CN(C)C(=S)NN=C(c1ccccn1)c1ccccn1 [Dp44mT, di-2-pyridylketone 4,4-dimethyl-3-thiosemicarbazone]",efflux in KBV1 cells in comparison to KB31 cells,[1]; 1-10 min incubation,significantly (p<0.001) higher efflux
same,effect of Val and Ela on efflux,"[1]; KBV1 cells, Val 1 μM or Ela 0.1 μM",significantly (p<0.01-0.001) suppressed efflux
same,stimulation of basal catalytic (ATPase) activity of Pgp,Pgp [2],3- to 8 fold
same,lysosomal integrity (acridine orange),KBV1 cells; 30 min incubation,did not compromise lysosomal integrity
same,lysosomal integrity (acridine orange),"KBV1 cells; KBV1 cells, 25 μM, 24 h",decreased lysosomal integrity
same,lysosomal damage in presence of Val,"KBV1 cells; KBV1 cells, 24 h, with Pgp inhibitor Val",significantly (p<0.01) reduced lysosomal damage
same,increased accumulation of Rh123,Pgp [3],up to two fold
same,more cytotoxic in drug-resistant KBV1 cells compared to KB31 cells,[4],31 fold
same,change of cytotoxicity in presence of Pgp inhibitors Val or Ela,"[4]; KBV1 cells, Val 1 μM, Ela 0.1 μM",clear decrease in the cytotoxicity
